Experiments:
Sprague-Dawley rats [1] = experiment: Incisional skin wound model, 14 day pilot study, topical treatment; assay type: in vivo
Experimental: (§1) Incisional Skin Wound Model and Assessment. Sprague-Dawley rats at 180-200 gram were anesthetized with isoflourane. After shaving, a 2-cm long incision was made, reaching the deep fascia on the back skin of rats under sterile conditions. The wounds were immediately closed with 4-0 sutures. A 14 day pilot study was carried out. The animals were topically treated with vehicle or Compound 1 at 0.004% twice daily. The vehicle contained ethanol 30%, propylene glycol 12%, dipropylene glycol 5%, benzyl alcohol 5%, glycerol 3% and normal saline 45%. The wound was photographed daily; biopsy was performed at 2, 3, 7 and 14 days post-surgery for histopathology and molecular biology analysis.
(§2) The wound tissue was biopsied for histopathology on day 3, 14 and 70. To observe the skin wound, paraffin-embedded wound sections were made. Regular H&E staining was carried out in comparison with Masson trichrome and/or Picosirus red to visualize the collagen fibers. To monitor myofibroblasts in skin wound, the sections were immunohistochemically stained to identify alpha-smooth muscle actin. To assess wound appearance, all the scar photos were mixed together by the end of each study. The scar severity was scored on a scale of 0 to 10, with 0 being invisible, 1 the minimal and 10 the worst. Each scar was divided into 4 regions, separated by suture sites; each quarter was scored independently; the mean of the 4 part scores was recorded as the gross score of each wound.

Sprague-Dawley rats [2] = experiment: Incisional skin wound study comparing Compound 1 and TGF-β3 (intradermal injection, then topical); assay type: in vivo; details: for number of neutrophils counted in three sections of H&E stained tissues: 3 days post-surgery, n=5, vehicle 60.6±30, not statistically significant; for macroscopic surface appearance of wound sites / abnormal regions (dense, red, fine parallel fibers) on Picrosirius red stained sections: 70 days post-surgery; for abnormal regions (dense, red, fine parallel fibers) on Picrosirius red stained sections: versus vehicle; for widths of the abnormal structured dermis regions, Masson trichrome / gap width in-between the normal fibrils, Picrosirius red / collagen fibril type at wound sites, Picrosirius red under polarized light: day 14; for widths of the abnormal structured dermis regions, Masson trichrome / size of residual scar regions, Masson trichrome: versus vehicle treated group, p<0.01-0.05; for gap width in-between the normal fibrils, Picrosirius red: versus vehicle-treated group, p<0.05; for collagen fibril type at wound sites, Picrosirius red under polarized light: yellow large bundles versus green type III collagen; for size of residual scar regions, Masson trichrome: day 70
Experimental: as §1
A similar skin wound study was also performed comparing the effects of Compound 1 and TGF-β3. In this study, intradermal injections of Compound 1 at 0.004%, TGF-β3 at 100 ng/200 μl or vehicle were given right before closing the wounds. Afterward, TGF-β3 was injected two more times, on day 1 and 2, and Compound 1 and vehicle were topically applied twice a day for the duration of the study. The vehicle was PBS with 0.1% BSA and 4 mM HCl in a total volume of 200 μl for injection. Skin wounds were imaged on day 3, 7, 14, and 70.
as §2

[3] = test system: human fetal skin fibroblasts (CRL-7129); experiment: Collagen type I production in cultured fetal skin fibroblasts (Western blot); assay type: cell-based
[4] = test system: human adult skin fibroblasts (CRL-7346); experiment: Collagen type I production in cultured adult skin fibroblasts (Western blot); assay type: cell-based
[5] = day 14, Masson Trichrome, versus vehicle
[6] = vehicle 100%, 48 hours treatment

**Q.** How did the “epidermal layer thickness and structure at wound site” value (Sprague-Dawley rats [1]; 7 days post-skin incision, 0.004% topical twice daily) turn out when CC1(C)C(=O)[C@H](C/C=C\CCCC(=O)O)[C@@H](/C=C/[C@H](O)CCc2sc3ccccc3c2Cl)[C@@H]1O [Compound 1] was run?
**A.** thickness close to the nearby normal epidermis

**Q.** And the “epidermal thickness of vehicle-treated skin relative to Compound 1 treated epidermis” value (Sprague-Dawley rats [1]; 7 days post-skin incision, vehicle had epidermal hyperplasia)?
**A.** 3 times

**Q.** And the “gross skin scar appearance” value (Sprague-Dawley rats [1]; 14 days post-surgery, versus vehicle-treated animals)?
**A.** smaller and softer skin scar

**Q.** And the “overall size of epidermal defects, vehicle-treated versus Compound 1 treated wounds” value (Sprague-Dawley rats [1]; day 3 post-surgery, 0.004% topical twice daily)?
**A.** two times larger for vehicle-treated wounds

**Q.** And the “skin wound samples showing closed epidermis filled with keratinocytes” value (Sprague-Dawley rats [1]; day 3 post-surgery, 0.004% topical twice daily, vehicle 33%)?
**A.** 80%

**Q.** And the “number of myofibroblasts (α-SMA-positive cells)” value (Sprague-Dawley rats [1]; day 3 samples, vehicle control 38±6.15/3 sections)?
**A.** 25.8±7.45 /3 sections

**Q.** And the “scar width (abnormal fiber belt) in the middle and bottom parts of scars” value (Sprague-Dawley rats [1]; [5])?
**A.** significantly reduced

**Q.** What about the “scar width at the superficial region” value (Sprague-Dawley rats [1]; [5]) of the same compound?
**A.** only a tendency to decrease

**Q.** And the “neutrophil (polymorphonuclear cell) infiltration at wound sites” value (Sprague-Dawley rats [1]; days 2 and 3 post-surgery, versus vehicle)?
**A.** significantly reduced

**Q.** What about the “number of neutrophils counted in three sections of H&E stained tissues” value (Sprague-Dawley rats [2]) of the same compound?
**A.** 31.4±8

**Q.** What about the “macroscopic surface appearance of wound sites” value (Sprague-Dawley rats [2]) of the same compound?
**A.** wound sites were not even detectable

**Q.** And the “abnormal regions (dense, red, fine parallel fibers) on Picrosirius red stained sections” value (Sprague-Dawley rats [2])?
**A.** largely absent

**Q.** What about the “widths of the abnormal structured dermis regions, Masson trichrome” value (Sprague-Dawley rats [2]) of the same compound?
**A.** significantly smaller

**Q.** What about the “gap width in-between the normal fibrils, Picrosirius red” value (Sprague-Dawley rats [2]) of the same compound?
**A.** significantly narrower

**Q.** What about the “collagen fibril type at wound sites, Picrosirius red under polarized light” value (Sprague-Dawley rats [2]) of the same compound?
**A.** large yellow-stained collagen bundles almost crossing over the entire wound sites

**Q.** What about the “size of residual scar regions, Masson trichrome” value (Sprague-Dawley rats [2]) of the same compound?
**A.** remarkably smaller

**Q.** And the “collagen type-1 production (in words)” value [3]?
**A.** upregulated

**Q.** What about the “collagen type-1 production relative to vehicle” value [3, 6] of the same compound?
**A.** 200%

**Q.** And the “collagen type-1 production (in words)” value [4]?
**A.** upregulated

**Q.** What about the “collagen type-1 production relative to vehicle” value [4, 6] of the same compound?
**A.** 128%

**Q.** With “TGF-β3: a leading treatment for wounds, reportedly reducing skin scar in both animals and human” as the compound, how does the “number of neutrophils counted in three sections of H&E stained tissues” value (Sprague-Dawley rats [2]) read?
**A.** 53.8±17

**Q.** What about the “macroscopic surface appearance of wound sites” value (Sprague-Dawley rats [2]) of the same compound?
**A.** still showed traces of wounds

**Q.** What about the “abnormal regions (dense, red, fine parallel fibers) on Picrosirius red stained sections” value (Sprague-Dawley rats [2]) of the same compound?
**A.** largely absent

**Q.** And the “widths of the abnormal structured dermis regions, Masson trichrome” value (Sprague-Dawley rats [2])?
**A.** significantly smaller

**Q.** What about the “gap width in-between the normal fibrils, Picrosirius red” value (Sprague-Dawley rats [2]) of the same compound?
**A.** significantly narrower

**Q.** And the “collagen fibril type at wound sites, Picrosirius red under polarized light” value (Sprague-Dawley rats [2])?
**A.** some green fibers at the bottom of the wounds

**Q.** And the “size of residual scar regions, Masson trichrome” value (Sprague-Dawley rats [2])?
**A.** remarkably smaller

Reference: patent publication US20120136011A1, “COMPOUNDS AND METHODS FOR SKIN REPAIR” (ALLERGAN, INC., priority 2010, published 2012)
